Assay results from ChEMBL document CHEMBL1143763, “Synthesis, in vitro assay, and molecular modeling of new piperidine derivatives having dual inhibitory potency against acetylcholinesterase and Abeta1-42 aggregation for Alzheimer's disease therapeutics” (Bioorg Med Chem, 2007).

The compounds below were run against Acetylcholinesterase (Electrophorus electricus, UniProt O42275).
Sequence of Acetylcholinesterase (O42275 whole entry): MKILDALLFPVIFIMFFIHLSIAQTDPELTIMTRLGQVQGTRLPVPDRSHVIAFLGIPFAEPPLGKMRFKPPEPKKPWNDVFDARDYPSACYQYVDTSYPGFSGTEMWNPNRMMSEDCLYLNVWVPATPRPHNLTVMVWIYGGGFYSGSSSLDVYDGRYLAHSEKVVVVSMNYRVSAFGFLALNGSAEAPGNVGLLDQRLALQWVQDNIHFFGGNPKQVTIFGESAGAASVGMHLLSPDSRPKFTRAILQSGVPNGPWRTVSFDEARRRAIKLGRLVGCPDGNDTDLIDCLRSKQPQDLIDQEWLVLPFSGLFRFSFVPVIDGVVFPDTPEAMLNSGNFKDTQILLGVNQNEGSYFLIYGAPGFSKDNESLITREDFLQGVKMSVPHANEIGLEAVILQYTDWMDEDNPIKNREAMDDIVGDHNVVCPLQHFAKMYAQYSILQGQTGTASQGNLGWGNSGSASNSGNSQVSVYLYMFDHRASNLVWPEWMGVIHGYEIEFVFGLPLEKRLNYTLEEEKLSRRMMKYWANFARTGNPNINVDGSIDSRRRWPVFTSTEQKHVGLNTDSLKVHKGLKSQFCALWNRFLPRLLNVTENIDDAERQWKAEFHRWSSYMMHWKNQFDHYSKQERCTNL
Description: Inhibition of Electrophorus electricus AChE by Ellman's method

Structure (SMILES) | IC50 [µM]
O=C(OCCCCN1CCC(OC(c2ccccc2)c2ccccc2)CC1)c1ccc(Cl)cc1 | 0.31
O=C(OCCCCN1CCC(OC(c2ccccc2)c2ccccc2)CC1)c1cccc(F)c1 | 7.72

Each compound was assayed against Cholinesterase (Homo sapiens, UniProt P06276).
Sequence of Cholinesterase (P06276 whole entry): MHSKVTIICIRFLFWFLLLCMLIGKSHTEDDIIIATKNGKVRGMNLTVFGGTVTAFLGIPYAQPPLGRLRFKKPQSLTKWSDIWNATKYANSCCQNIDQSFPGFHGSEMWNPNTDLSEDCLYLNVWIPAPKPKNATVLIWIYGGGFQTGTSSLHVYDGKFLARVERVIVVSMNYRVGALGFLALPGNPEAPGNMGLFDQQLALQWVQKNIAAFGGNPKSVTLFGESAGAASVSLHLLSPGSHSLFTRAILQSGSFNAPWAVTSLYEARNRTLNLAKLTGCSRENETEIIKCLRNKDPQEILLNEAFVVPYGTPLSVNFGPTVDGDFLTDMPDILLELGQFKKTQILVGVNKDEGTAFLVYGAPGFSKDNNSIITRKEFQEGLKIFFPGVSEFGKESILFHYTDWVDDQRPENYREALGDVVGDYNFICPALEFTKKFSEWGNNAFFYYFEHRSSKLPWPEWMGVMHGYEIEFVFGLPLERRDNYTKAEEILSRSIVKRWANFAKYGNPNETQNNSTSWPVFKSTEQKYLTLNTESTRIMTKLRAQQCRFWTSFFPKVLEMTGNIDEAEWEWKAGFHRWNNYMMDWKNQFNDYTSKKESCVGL
Description: Inhibition of human BChE by Ellman's method

Structure (SMILES) | IC50 [µM]
O=C(OCCCCN1CCC(OC(c2ccccc2)c2ccccc2)CC1)c1cccc(Cl)c1 | 57.9
O=C(OCCCCN1CCC(OCc2ccccc2)CC1)c1ccc([N+](=O)[O-])cc1 | 5.23
CC(C)c1ccc(C(=O)OCCCCN2CCC(OCc3ccccc3)CC2)cc1 | 10.8
CC(C)(C)c1ccc(C(=O)OCCCCN2CCC(OCc3ccccc3)CC2)cc1 | 15.2
CC(C)(C)c1ccc(C(=O)OCCCCN2CCC(OC(c3ccccc3)c3ccccc3)CC2)cc1 | 78.9
O=C(OCCCCN1CCC(OCc2ccccc2)CC1)c1ccc(Cl)cc1 | 3.52
O=C(OCCCCN1CCC(OC(c2ccccc2)c2ccccc2)CC1)c1ccc(F)cc1 | 22.2
O=C(OCCCCN1CCC(OC(c2ccccc2)c2ccccc2)CC1)c1ccc(Cl)cc1 | 38.4
O=C(OCCCCN1CCC(OCc2ccccc2)CC1)c1ccc(F)cc1 | 0.56
O=C(OCCCCN1CCC(OCc2ccccc2)CC1)c1cccc(F)c1 | 1.58
O=C(OCCCCN1CCC(OCc2ccccc2)CC1)c1ccccc1 | 1.89
O=C(Nc1ccc(Cl)cc1)OCCCCN1CCC(OCc2ccccc2)CC1 | 0.25
O=C(OCCCCN1CCC(OCc2ccccc2)CC1)c1cccc(Cl)c1 | 1.35
O=C(Nc1ccc(F)cc1)OCCCCN1CCC(OC(c2ccccc2)c2ccccc2)CC1 | 15.7
O=C(OCCCCN1CCC(OC(c2ccccc2)c2ccccc2)CC1)c1ccccc1 | 31.5
O=C(OCCCCN1CCC(OC(c2ccccc2)c2ccccc2)CC1)c1cccc(F)c1 | 31.5
O=C(Nc1ccc(F)cc1)OCCCCN1CCC(OCc2ccccc2)CC1 | 0.78
CC(C)c1ccc(C(=O)OCCCCN2CCC(OC(c3ccccc3)c3ccccc3)CC2)cc1 | 23.2
O=C(Nc1ccc(Cl)cc1)OCCCCN1CCC(OC(c2ccccc2)c2ccccc2)CC1 | 13.7
O=C(OCCCCN1CCC(OC(c2ccccc2)c2ccccc2)CC1)c1ccc([N+](=O)[O-])cc1 | 26.8
